Test results as given in PubChem BioAssay AID248 (DTP/NCI, 2004).
Values joined by “and” are separate entries in the source; they are usually repeats but may differ in a detail not shown here. Equal entries are not always repeated. Toxic doses and inconclusive results are not listed. Cut-off read from the data, not from the text of the source: active = T/C of 150% or more; inactive = T/C below 125%.

Test system: L1210 leukemia ip in BDF1 mice, survival T/C
Assay: NCI In Vivo Anticancer Drug Screen. Data for tumor model L1210 Leukemia (intraperitoneal) in B6D2F1 (BDF1) mice
Conditions: endpoint: mean survival time, higher = longer survival
Procedure, shortened: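 Transplanted-tumor mice were given test agent; controls received vehicle only. Survival readings from the two groups were divided (treated over control).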

[1] = dose: 100.0 mg/kg/injection, schedule: Q01DX001 (ip), vehicle: carboxymethylcellulose (CMC)
[2] = dose: 200.0 mg/kg/injection, schedule: Q01DX001 (ip), vehicle: carboxymethylcellulose (CMC)
[3] = dose: 100.0 mg/kg/injection, schedule: Q01DX001 (ip), vehicle: saline
[4] = dose: 12.5 mg/kg/injection, schedule: Q04DX003 (ip), vehicle: saline
[5] = dose: 100.0 mg/kg/injection, schedule: Q01DX009 (ip), vehicle: carboxymethylcellulose (CMC)
[6] = dose: 100.0 mg/kg/injection, schedule: Q04DX002 (ip), vehicle: Klucel (hydroxypropylcellulose) (HPC)
[7] = dose: 100.0 mg/kg/injection, schedule: Q04DX002 (ip), vehicle: carboxymethylcellulose (CMC)
[8] = dose: 100.0 mg/kg/injection, schedule: Q04DX003 (ip), vehicle: carboxymethylcellulose (CMC)
[9] = dose: 200.0 mg/kg/injection, schedule: Q01DX009 (ip), vehicle: carboxymethylcellulose (CMC)
[10] = dose: 200.0 mg/kg/injection, schedule: Q04DX002 (ip), vehicle: Klucel (hydroxypropylcellulose) (HPC)
[11] = dose: 200.0 mg/kg/injection, schedule: Q04DX002 (ip), vehicle: carboxymethylcellulose (CMC)
[12] = dose: 200.0 mg/kg/injection, schedule: Q04DX003 (ip), vehicle: carboxymethylcellulose (CMC)
[13] = dose: 400.0 mg/kg/injection, schedule: Q01DX009 (ip), vehicle: carboxymethylcellulose (CMC)
[14] = dose: 400.0 mg/kg/injection, schedule: Q04DX002 (ip), vehicle: Klucel (hydroxypropylcellulose) (HPC)
[15] = dose: 400.0 mg/kg/injection, schedule: Q04DX002 (ip), vehicle: carboxymethylcellulose (CMC)
[16] = dose: 100.0 mg/kg/injection, schedule: Q01DX009 (ip), vehicle: saline
[17] = dose: 100.0 mg/kg/injection, schedule: Q04DX003 (ip), vehicle: saline
[18] = dose: 200.0 mg/kg/injection, schedule: Q01DX009 (ip), vehicle: saline
[19] = dose: 200.0 mg/kg/injection, schedule: Q04DX003 (ip), vehicle: saline
[20] = dose: 100.0 mg/kg/injection, schedule: Q04DX003 (ip), vehicle: Klucel (hydroxypropylcellulose) (HPC)
[21] = dose: 200.0 mg/kg/injection, schedule: Q01DX001 (ip), vehicle: saline

Measured: T/C

OCC(O)C(O)/C=N/N(Cc1ccccc1)c1ccccc1 (configuration not stated)
inactive: dose: 50.0 mg/kg/injection, schedule: Q01DX001 (ip), vehicle: carboxymethylcellulose (CMC) 103 % of control | [1] 101 % of control | [2] 101 % of control | dose: 400.0 mg/kg/injection, schedule: Q01DX001 (ip), vehicle: carboxymethylcellulose (CMC) 97 % of control

c1ccc([P+](CC2CCCO2)(c2ccccc2)c2ccccc2)cc1 (configuration not stated)
inactive: [3] 113 % of control

NNC(N)=S
inactive: dose: 3.13 mg/kg/injection, schedule: Q04DX003 (ip), vehicle: saline 109 % of control | dose: 6.25 mg/kg/injection, schedule: Q04DX003 (ip), vehicle: saline 104 % of control and 103 % of control | [4] 97 % of control and 100 % of control

Nc1cnccc1N1CCN(c2ccc(Cl)c(Cl)c2)CC1
inactive: dose: 100.0 mg/kg/injection, schedule: Q01DX009 (ip), vehicle: gum acacia 95 % of control

O=P(Oc1ccccc1)(OP(=O)(Oc1ccccc1)N(CCCl)CCCl)N(CCCl)CCCl (configuration not stated)
inactive: dose: 12.5 mg/kg/injection, schedule: Q01DX Z (ip), vehicle: methylcellulose (MC) 97 % of control | dose: 25.0 mg/kg/injection, schedule: Q01DX Z (ip), vehicle: methylcellulose (MC) 102 % of control | dose: 50.0 mg/kg/injection, schedule: Q01DX Z (ip), vehicle: methylcellulose (MC) 96 % of control | dose: 100.0 mg/kg/injection, schedule: Q01DX Z (ip), vehicle: methylcellulose (MC) 96 % of control | dose: 250.0 mg/kg/injection, schedule: Q01DX Z (ip), vehicle: other 98 % of control | dose: 500.0 mg/kg/injection, schedule: Q01DX Z (ip), vehicle: other 104 % of control

O=C(O)c1ccc([N+](=O)[O-])cc1F
inactive: [1] 101 % of control | [5] 96 % of control and 116 % of control | [6] 90 % of control | [7] 102 % of control and 107 % of control | [8] 97 % of control | [2] 99 % of control | [9] 107 % of control and 89 % of control | [10] 104 % of control | [11] 99 % of control and 110 % of control | [12] 100 % of control | [13] 89 % of control | [14] 93 % of control | [15] 100 % of control and 86 % of control

Nc1c(S(=O)(=O)O)ccc2c1C(=O)c1ccccc1C2=O
inactive: [16] 90 % of control | [17] 101 % of control | [18] 97 % of control | [19] 96 % of control | dose: 400.0 mg/kg/injection, schedule: Q01DX009 (ip), vehicle: saline 92 % of control | dose: 400.0 mg/kg/injection, schedule: Q04DX003 (ip), vehicle: saline 91 % of control

CC1(C)N=C(N)N=C(N)N1c1cccc(CCCCC(=O)CCl)c1
inactive: [4] 109 % of control | dose: 25.0 mg/kg/injection, schedule: Q04DX003 (ip), vehicle: saline 102 % of control | dose: 50.0 mg/kg/injection, schedule: Q04DX003 (ip), vehicle: saline 110 % of control

O=C(O)c1ccc(F)c(F)c1
inactive: dose: 100.0 mg/kg/injection, schedule: Q04DX002 (ip), vehicle: other 110 % of control | dose: 200.0 mg/kg/injection, schedule: Q04DX002 (ip), vehicle: other 115 % of control | dose: 400.0 mg/kg/injection, schedule: Q04DX002 (ip), vehicle: other 107 % of control

C=C1C(=O)OC2/C=C(/CO)C3OC3C3OC3(C)CC(OC(=O)/C(C)=C\COC(C)=O)C12 (configuration not stated)
inactive: dose: 25.0 mg/kg/injection, schedule: Q04DX003 (ip), vehicle: Klucel (hydroxypropylcellulose) (HPC) 98 % of control | dose: 50.0 mg/kg/injection, schedule: Q04DX003 (ip), vehicle: Klucel (hydroxypropylcellulose) (HPC) 104 % of control | [20] 94 % of control and 89 % of control

O=C1OCC/C1=C\c1ccccc1
inactive: [1] 91 % of control | [2] 94 % of control

O=C(NCCCN1CC1)C(=O)NNc1ccccc1
inactive: [20] 102 % of control | dose: 200.0 mg/kg/injection, schedule: Q04DX003 (ip), vehicle: Klucel (hydroxypropylcellulose) (HPC) 93 % of control

CN(C)c1ccccc1C#N
inactive: [5] 93 % of control and 103 % of control | [7] 108 % of control | [8] 106 % of control | [9] 98 % of control and 104 % of control | [11] 94 % of control | [12] 101 % of control | [13] 113 % of control | [15] 115 % of control | dose: 400.0 mg/kg/injection, schedule: Q04DX003 (ip), vehicle: carboxymethylcellulose (CMC) 98 % of control

CC(CCc1ccccc1)N(C)C(=O)CNC(=O)CN1C(=O)c2ccccc2C1=O (configuration not stated)
inactive: [3] 96 % of control | [21] 92 % of control

ClC(C[n+]1ccccc1)c1ccccc1 (configuration not stated)
inactive: [3] 100 % of control

CC(=O)N(C)c1ccc(NC(=O)c2c(Br)c(Br)c(Br)c(Br)c2C(=O)O)cc1
inactive: dose: 100.0 mg/kg/injection, schedule: Q01DX009 (ip), vehicle: Klucel (hydroxypropylcellulose) (HPC) 98 % of control | dose: 200.0 mg/kg/injection, schedule: Q01DX009 (ip), vehicle: Klucel (hydroxypropylcellulose) (HPC) 89 % of control | dose: 400.0 mg/kg/injection, schedule: Q01DX009 (ip), vehicle: Klucel (hydroxypropylcellulose) (HPC) 105 % of control

CCCCCN1CCCC(OC(=O)N(C)C)C1 (configuration not stated)
inactive: dose: 25.0 mg/kg/injection, schedule: Q04DX002 (ip), vehicle: saline 106 % of control | dose: 50.0 mg/kg/injection, schedule: Q04DX002 (ip), vehicle: saline 103 % of control | dose: 100.0 mg/kg/injection, schedule: Q04DX002 (ip), vehicle: saline 86 % of control

C[N+]1(C)CCC(OC(=O)C(O)(c2ccccc2)C2CCCC2)C1 (configuration not stated)
inactive: dose: 100.0 mg/kg/injection, schedule: Q04DX003 (ip), vehicle: saline with Tween-80 100 % of control

CS(=O)(=O)OCCC(COS(C)(=O)=O)S(=O)(=O)Cc1ccccc1 (configuration not stated)
inactive: dose: 15.0 mg/kg/injection, schedule: Q01DX001 (ip), vehicle: saline 101 % of control | dose: 30.0 mg/kg/injection, schedule: Q01DX001 (ip), vehicle: saline 104 % of control

NNC(=O)Cc1ccc([N+](=O)[O-])cc1
inactive: dose: 50.0 mg/kg/injection, schedule: Q01DX009 (ip), vehicle: saline 94 % of control | [3] 97 % of control | [16] 103 % of control | [21] 94 % of control | [18] 105 % of control

CCCCCCCCCCN(CCCCCCCCCC)C(C)C(=O)c1ccc2cc(Br)c3ccccc3c2c1 (configuration not stated)
inactive: dose: 55.0 mg/kg/injection, schedule: Q01DX Z (ip), vehicle: methylcellulose (MC) 93 % of control | dose: 83.0 mg/kg/injection, schedule: Q01DX Z (ip), vehicle: methylcellulose (MC) 100 % of control | dose: 125.0 mg/kg/injection, schedule: Q01DX Z (ip), vehicle: methylcellulose (MC) 93 % of control

CCCCCCCCCCCCNCCC#N
inactive: dose: 100.0 mg/kg/injection, schedule: Q04DX002 (sc), vehicle: olive oil, sesame oil, peanut oil 100 % of control | dose: 200.0 mg/kg/injection, schedule: Q04DX002 (sc), vehicle: olive oil, sesame oil, peanut oil 98 % of control | dose: 400.0 mg/kg/injection, schedule: Q04DX002 (sc), vehicle: olive oil, sesame oil, peanut oil 98 % of control

COC1OC(n2cnc3ncn(Cc4ccccc4)c3c2=N)C2OC(C)(C)OC12 (configuration not stated)
inactive: [17] 97 % of control | [19] 92 % of control

O=C(O)/C=C/C(=O)Nc1cccc(C(F)(F)F)c1
inactive: [6] 100 % of control | [10] 100 % of control | [14] 96 % of control

CCCCCCCCCCCCCCCC(=O)ONC(N)=O
inactive: dose: 100.0 mg/kg/injection, schedule: Q01DX001 (ip), vehicle: saline with Tween-80 100 % of control | dose: 200.0 mg/kg/injection, schedule: Q01DX001 (ip), vehicle: saline with Tween-80 96 % of control | dose: 400.0 mg/kg/injection, schedule: Q01DX001 (ip), vehicle: saline with Tween-80 91 % of control
